Experiments:
S. pyogenes = assay: Effect of solvent (water or D2O) on ceftazidime activity; type: cell-based; conditions: dissolved in D2O (FIG. 33)
Protocol: The effect of solvent on ceftazidime activity was tested to confirm that dissolving ceftazidime in D2O could alter its efficacy. We therefore dissolved control and modified ceftazidime in water of D2O and tested it effect on S. pyogenes (FIG. 33). […] Thus, our findings underscore the unique importance of isotopes.

[1] = system: normotensive Sprague-Dawley rats; assay: Nicardipines on blood pressure in normotensive Sprague-Dawley rats (Example VI); type: in vivo, rat; conditions: for slope function of dose response: calculated by Litchfield-Wilcoxon method; for change in mean arterial pressure at equipotent doses: control 1×10^−9 moles, deuterated 3×10^−9 moles, p=NS; for ED16, reduction in mean arterial pressure / ED50, reduction in mean arterial pressure / ED84, reduction in mean arterial pressure: injected, anesthetized rats
Source text: Effect of deuterated control […] on blood pressure in normotensive Sprague-Dawley rats.

S. aureus = assay: Penicillin V dose-response study; type: cell-based
Protocol: A dose-response study for penicillin V using S. aureus was conducted (FIG. 30). […] These conditions used a higher inoculum (100 fold) than previous studies.
A experiment similar to that above was performed except that the dose range was larger.

[2] = system: Spontaneously hypertensive rats (SHR); assay: Blood pressure effect of i.v. nifedipines in anesthetized spontaneously hypertensive rats (Example II); type: in vivo, rat; conditions: at the three lower concentrations, p=0.08 Wilcoxon rank-sum (FIG. 1)
Protocol: Spontaneously hypertensive rats (SHR) were anesthetized with pentobarbital (65 mg/kg, intraperitoneally) and a carotid artery and jugular vein cannulated. Blood pressure was continuously monitored via the carotid artery cannula. […] Aliquots of appropriate dilutions were then injected intravenously in the SHR and blood pressure effects monitored for at least two hours following injection. Doses used were 0.00001, 0.00002, 0.000025, and 0.00005 moles per rat in the control group and in the test group. All rats were within 25 grams of body weight of each other.

[3] = system: normotensive Sprague-Dawley rats; assay: Nifedipines on blood pressure in normotensive Sprague-Dawley rats (Example V); type: in vivo, rat; conditions: for maximum change in mean arterial pressure at equipotent doses: 1 ml injected, control 2×10^−3 molar, p=NS; for maximum change in mean arterial pressure at equipotent doses / duration of action (hypotensive response): deuterated 1×10^−3 molar; for duration of action (hypotensive response): equipotent doses: control 2×10^−3 molar, p=0.02
Source text: Effect of deuterated and control nifedipines on blood pressure in normotensive Sprague-Dawley rats.

[4] = system: T type calcium channels in NE 115 cells; assay: Use dependency of calcium channel inhibition, whole cell patch-clamp with repetitive pulses (Example IV)
Protocol: In the following set of examples, calcium channels were depolarized with repetitive pulses of current at the intervals indicated. Such studies were carried out using the whole cell version of the patch-clamp. The reduction of inward current as a function of the interval between pulses in the absence of any drug was taken as the control.

Staphylococcus aureus [5] = assay: Antibiotic tube dilution (NCCLS); type: cell-based; conditions: tube dilution (FIG. 20 penicillin V, FIG. 26 methicillin)
Protocol: (§1) Antibiotic testing was carried out using disc diffusion and tube dilution methods following NCCLS (National Committee for Clinical Laboratory Standards) methodology with several strains of bacteria.
(§2) Antibiotic testing was carried using disc diffusion and tube dilution methods following NCCLS (National Committee for Clinical Laboratory Standards) methodology.

Streptococcus pyogenes [6] = assay: Antibiotic tube dilution (NCCLS); type: cell-based; conditions: tube dilution (FIG. 20 penicillin V, FIG. 26 methicillin)
Protocol: as §1, §2

Staphylococcus aureus [7] = assay: Antibiotic disc diffusion (NCCLS); type: cell-based; conditions: disc diffusion (FIG. 19, 29 ceftazidime; FIGS. 21, 22 penicillin V; FIG. 27 methicillin)
Protocol: as §1, §2

Streptococcus faecalis [8] = assay: Antibiotic disc diffusion (NCCLS); type: cell-based; conditions: disc diffusion (FIGS. 21, 22 penicillin V; FIG. 27 methicillin)
Protocol: as §1, §2

Streptococcus pyogenes [9] = assay: Antibiotic disc diffusion (NCCLS); type: cell-based; conditions: disc diffusion (FIGS. 21, 22 penicillin V; FIG. 27 methicillin)
Protocol: as §1, §2

[10] = system: Staphylococcus aureus (ATCC 25923) or Streptococcus faecalis (ATCC 29212); assay: Penicillin V zonal inhibition on Mueller-Hinton agar plates; type: cell-based; conditions: disks with 0.1 ml of 1 mg/ml solution, 24 hours at 37° C. (FIG. 23)
Protocol: Penicillin V. or deuterated penicillin V disks were prepared by allowing 0.1 ml of a 1 mg/ml solution of the respective drugs to absorb into filter paper disks. After drying the disks were placed onto Mueller-Hinton agar plates seeded with either Staphylococcus aureus (ATCC 25923) or Streptococcus faecalis (ATCC 29212). The resulting plates were incubated for 24 hours at 37° C. and zones of inhibition around the disks were measured. Results are graphically depicted in FIG. 23.

[11] = system: S. aureus clinical isolates; assay: Penicillin V on clinical isolates; type: cell-based; conditions: methicillin sensitive isolates (FIGS. 34 and 35)
Protocol: The effect of control and deuterated penicillin V on S. aureus clinical isolates was determined (FIGS. 34 and 35). […] The modest differences may be related to the concentrations used and density of bacterial seeding on the plates.

Streptococcus faecalis [12] = assay: Antibiotic tube dilution (NCCLS); type: cell-based; conditions: tube dilution (FIG. 26 methicillin)
Protocol: as §1, §2

CC(C)(O/N=C(\C(=O)N[C@@H]1C(=O)N2C(C(=O)[O-])=C(C[n+]3ccccc3)CS[C@H]12)c1csc(N)n1)C(=O)O [control ceftazidime, ceftazidime]
activity when dissolved in D2O (S. pyogenes): enhance activity

COC(=O)C1=C(C)NC(C)=C(C(=O)OCCN(C)Cc2ccccc2)C1c1cccc([N+](=O)[O-])c1 (stereo not drawn) [control nicardipine, nicardipine, reference compound]
slope function of dose response [1]: 416 | change in mean arterial pressure at equipotent doses [1]: −13.8 mmHg | ED16, reduction in mean arterial pressure [1]: 6.11e-06 mmol | ED50, reduction in mean arterial pressure [1]: 0.00254 mmol | ED84, reduction in mean arterial pressure [1]: 1.06 mmol

CC1(C)S[C@@H]2[C@H](NC(=O)COc3ccccc3)C(=O)N2[C@H]1C(=O)O [control penicillin V, penicillin V, reference compound]
bacteriocidal activity (S. aureus; higher doses, larger dose range (FIG. 31)): ineffective

[2H]C([2H])([2H])C1=C(C(=O)OC)C(c2cccc([N+](=O)[O-])c2)C(C(=O)OCCN(C)Cc2ccccc2)=C(C([2H])([2H])[2H])N1 (stereo not drawn) [deuterated nicardipine]
duration of effect compared with control ([1]; at most time periods (FIG. 10)): greater for deuterated nicardipine compared to control nicardipine | slope function of dose response [1]: 46 | change in mean arterial pressure at equipotent doses [1]: −13.8 mmHg | ED16, reduction in mean arterial pressure [1]: 4.62e-05 mmol | ED50, reduction in mean arterial pressure [1]: 0.00211 mmol | ED84, reduction in mean arterial pressure [1]: 0.09 mmol

[2H]C([2H])([2H])C1=C(C(=O)OC)C(c2ccccc2[N+](=O)[O-])C(C(=O)OC)=C(C([2H])([2H])[2H])N1 [deuterated nifedipine]
hypotensive effect compared with regular nifedipine [2]: greater than that of regular nifedipine | maximum change in mean arterial pressure at equipotent doses [3]: −40.3 mmHg | potency on mean arterial pressure compared with control ([3]; all doses, six rats per dose, p<0.05 (FIG. 6)): more potent than control nifedipine | duration of effect compared with control ([3]; at each time period): greater for deuterated nifedipine compared to control nifedipine | duration of action (hypotensive response) [3]: 62.2 min | calcium current inhibition as a function of pulse frequency ([4]; 1 and 0.3 second intervals, 5 micromolar (FIG. 4)): more effective than control nifedipine in blocking the calcium channels | decrease of inward current at increased stimulation frequency ([4]; 5 micromolar, FIG. 2 panel C): more effective than control nifedipine | use dependent calcium channel inhibition ([4]; all frequencies, 5 micromolar (FIG. 5)): greater use dependent calcium channel inhibition | inhibitory effect on inward calcium current ([4]; repetitive 1 second pulses, 5 micromolar, p<0.05 (FIG. 3)): more effective at blocking calcium current than control current

CC1(C)S[C@@H]2[C@H](NC(=O)COc3ccccc3)C(=O)N2[C@H]1C(=O)O [deuterated penicillin V]
concentration necessary to inhibit growth, modified vs control drug (Staphylococcus aureus [5]): substantially less compared to control drug | concentration necessary to inhibit growth, modified vs control drug (Streptococcus pyogenes [6]): substantially less compared to control drug | zones of inhibition, modified vs control drug (Staphylococcus aureus [7]): greater for modified (test) compared to control drug | zones of inhibition, modified vs control drug (Streptococcus faecalis [8]): greater for modified (test) compared to control drug | zones of inhibition, modified vs control drug (Streptococcus pyogenes [9]): greater for modified (test) compared to control drug | potency relative to native penicillin V in zonal inhibition [10]: increase in potency | bacteriocidal activity (S. aureus; high dose, higher inoculum (100 fold) (FIG. 30)): began to show effect | bacteriocidal activity (S. aureus; higher doses, larger dose range (FIG. 31), listed as modified penicillin V): effective at higher doses | potency, modified vs control drug [11]: always more potent than the controls

[2H]c1c([2H])c(OC)c(C(=O)N([2H])C2C(=O)N3C2SC(C)(C)C3C(=O)[O-])c(OC)c1[2H].[Na+] (stereo not drawn) [modified methicillin]
concentration necessary to inhibit growth, modified vs control drug (Staphylococcus aureus [5]): less for control compared to modified drug | concentration necessary to inhibit growth, modified vs control drug (Streptococcus faecalis [12]): less for control compared to modified drug | concentration necessary to inhibit growth, modified vs control drug (Streptococcus pyogenes [6]): less for control compared to modified drug | zones of inhibition, modified vs control drug (Staphylococcus aureus [7]): less for modified compared to control drug | zones of inhibition, modified vs control drug (Streptococcus faecalis [8]): less for modified compared to control drug | zones of inhibition, modified vs control drug (Streptococcus pyogenes [9]): less for modified compared to control drug

COC(=O)C1=C(C)NC(C)=C(C(=O)OC)C1c1ccccc1[N+](=O)[O-] [nifedipine, reference compound]
maximum change in mean arterial pressure at equipotent doses [3]: −45.8 mmHg | duration of action (hypotensive response) [3]: 46.5 min
